Measurements as given in article PMC4840416, “Constructing and Validating High-Performance MIEC-SVM Models in Virtual Screening for Kinases: A Better Way for Actives Discovery” (Scientific Reports, 2016).

Biological target: T1, recombinant human ALK protein (Homo sapiens, UniProt Q9UM73)
T1 construct: purchased Life Technologies Inc. PV3867
Test: LanthaScreen TR-FRET in vitro inhibitory activity assay of ALK
Assay type: biochemical
Conditions: for Averaged Enzymatic Inhibition @ 2ug/ml (%) / inhibition at 2 µg/mL: compound at 2ug/ml; for IC50: TR-FRET, 5 μM ATP, 1 hour at room temperature; for inhibition at 2 µg/mL: read-out: Averaged Enzymatic Inhibition @ 2ug/ml (%)
Method: All reagents and anhydrous solvents were obtained from commercial sources and used as received. The positive control inhibitors of ALK, crizotinib and ceritinib, were purchased from Bangshunda Technology and Selleck Chemicals, respectively. The compounds were dissolved in 100% dimethyl sulfoxide (DMSO) as a 10 mM stock solution. The final DMSO concentration in each reaction was less than 1%. Purified recombinant human ALK protein (Catalog number: PV3867) as well as reagents for TR-FRET assay, including Lantha Screen™ Tb-PY20 (Catalog number: PV3552), Fluorescein-Poly GT (Catalog number: PV3610), ATP (Catalog number: PV3227), Kinase Quench Buffer (Catalog number: P2832), Kinase Buffer (Catalog number: PV3189), and Antibody Dilution Buffer (Catalog number: PV3574), were all obtained from Life Technologies Inc.
Lantha Screen™ kinase assay based on TR-FRET technology was used to measure the inhibitory activity of the screened compounds. All the assays were carried out in 384-well plate format. The 4 × test compounds were firstly prepared before the enzyme reaction starts. The 4 × recombinant human ALK protein and 2 × Substrate/ATP mixture were separately prepared in 50 mM HEPES (pH = 7.5), 0.01% BRIJ-35, 10 mM MgCl2, 4 mM MnCl2, 1 mM EGTA, and 2 mM DTT. The final 10 μL kinase reaction consists of 5 μL 1 × Substrate/ATP mixture (0.2 μM substrate and 5 μM ATP), 2.5 μL ALK (5 ng/ml ALK protein), and 2.5 μL 1 × test compounds with desired concentration. The assay plate was shook on a plate shaker for 30 seconds to mix the reactions thoroughly. After 1 hour kinase reaction incubation at room temperature (20 ~ 25 °C), 10 μL of pre-prepared 20 mM EDTA and 4 nM Tb-labeled antibody solution was then added to terminate the kinase reactions and to initiate antibody binding, and the assay plate was incubated for another 1 hour at room temperature. Then, the assay plate was placed into a fluorescence plate reader (BioTek Synergy™ 4) to measure both fluoresce in and terbium emission signals (excitation: 340 nm; emission: 520 and 495 nm, respectively) with 100 μs delay time and 200 μs integration time. To determine the IC50 values, the resulted inhibitory activity calculated from TR-FRET emission ratio (i.e. fluoresce in emission intensity/terbium emission intensity) was plotted against the concentration of inhibitor, and the data was fitted to a dose-response curve with a variable slop.

T1 sequence (Q9UM73 1058-1620 limits assumed): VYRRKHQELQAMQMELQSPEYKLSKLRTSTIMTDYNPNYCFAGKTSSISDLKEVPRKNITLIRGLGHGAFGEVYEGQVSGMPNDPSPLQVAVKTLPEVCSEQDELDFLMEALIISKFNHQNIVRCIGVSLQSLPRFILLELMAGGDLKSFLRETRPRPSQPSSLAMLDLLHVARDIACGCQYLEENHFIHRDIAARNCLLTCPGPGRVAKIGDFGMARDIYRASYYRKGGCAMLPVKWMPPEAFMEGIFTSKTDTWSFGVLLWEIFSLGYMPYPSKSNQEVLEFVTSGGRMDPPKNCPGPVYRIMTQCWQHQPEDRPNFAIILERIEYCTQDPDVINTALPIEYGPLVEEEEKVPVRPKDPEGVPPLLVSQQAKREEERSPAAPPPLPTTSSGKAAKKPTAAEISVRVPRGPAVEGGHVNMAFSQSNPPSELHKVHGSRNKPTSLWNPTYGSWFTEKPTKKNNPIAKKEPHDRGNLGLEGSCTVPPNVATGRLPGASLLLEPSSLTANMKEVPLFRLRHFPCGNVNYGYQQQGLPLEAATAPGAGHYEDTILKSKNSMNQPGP

Structure (SMILES)	Averaged Enzymatic Inhibition @ 2ug/ml (%)	IC50 [nM]	inhibition at 2 µg/mL [%]
C(=N\Nc1nnc(-c2ccccc2)c(-c2ccccc2)n1)/c1c2ccccc2cc2ccccc12 [AK-968/11200121]	-0.805		
COc1cccc(-c2cc3c(c(N)c2C#N)c(=O)oc2ccccc23)c1 [AO-476/43362608]	9.055		
O=C(Nc1ccc(Cl)cc1)C1CC(=O)N(c2ccc(Oc3ccccc3)cc2)C1 (stereo not drawn) [AO-081/15572353]	-3.26		
Cc1ccc(-n2cnc3c(sc4nnc(-c5ccccc5)c(-c5ccccc5)c43)c2=O)cc1 [AN-789/13819006]	1.595		
Nc1nc(Nc2cccc(Cl)c2)sc1C(=O)C12CC3CC(CC(C3)C1)C2 [AM-807/12426163]	5.915		
O=C(CC1(O)C(=O)N(CCc2ccccc2)c2ccccc21)c1ccc2c(c1)OCCO2 (stereo not drawn) [AK-778/41314821]	-1.935		
Cc1ccccc1-c1nnc(-c2ccc(-c3ccccc3)cc2)n1-c1ccccc1 [AG-690/33068064]	4.62		
CCCn1c(=O)c(C(=O)NNS(=O)(=O)c2ccc(Br)cc2)c(O)c2ccccc21 [AG-690/11765341]	9.265		
O=c1oc2ccccc2cc1-c1nnc(NC2CCCCC2)s1 [AQ-968/42007731]	-5.865		
c1ccc2cc3c(ccc4ccc5cc6c(ccc7ccccc76)cc5c43)cc2c1 [AB-131/42301451]	28.575		
CN1C(=O)c2cccc3c(S(=O)(=O)Nc4nc[nH]n4)ccc1c23 [Compound M6]		4450	53.3
O=C1c2ccccc2-c2c1c(-c1cccc(Oc3ccccc3)c1)nc1ccc3ccccc3c21 [AG-690/12869023]	12.235		
CCN1C(=O)c2cccc3c(S(=O)(=O)Nc4nc5ccccc5s4)ccc1c23 [Compound M7]		6050	50.8
C(=C(\Cn1nc(-c2ccccc2)c(-c2ccccc2)c1-c1ccccc1)c1ccccc1)/c1ccccc1 [AK-830/13217169]	2.08		
Cc1ccc(-c2csc(N3N=C(c4ccc5c(c4)CCCC5)CC3c3ccccc3)n2)cc1 (stereo not drawn) [AL-182/40744490]	-4.165		
CC(C)N(C(=O)Cn1c(/C=C/c2ccccc2)nc2ccccc21)c1ccccc1 [AF-399/15335536]	5.725		
Cc1ccc(-c2ccc(/C=C3/SC(N4CCN(c5cccc(C)c5)CC4)=NC3=O)o2)cc1 [AF-399/40881300]	13.735		
CCc1ccc2[nH]c3nc(N/N=C/c4ccc(-c5cccc(C(F)(F)F)c5)o4)nnc3c2c1 [AN-655/15262058]	11.82		
COc1ccccc1C(=O)Nc1ccc2oc(-c3cccc4c(Br)cccc34)nc2c1 [AK-968/12097078]	-2.025		
Cc1cccc(C)c1OCC(O)CN1CCC(CN2C(=O)c3cccc4cccc(c34)C2=O)CC1 (stereo not drawn) [AF-399/14388040]	-20.41		
Cc1cc(C)c2oc(-c3ccc(C)c(NS(=O)(=O)c4cc([N+](=O)[O-])ccc4Cl)c3)nc2c1 [AG-690/08629011]	26.47		
Cc1ccc(-c2cc(-c3c(-c4ccccc4)c4cc(Cl)ccc4[nH]c3=O)nc3ccccc23)cc1 [AG-690/12134081]	10.575		

Structure (SMILES)	Averaged Enzymatic Inhibition @ 2ug/ml (%)	IC50 [nM]	inhibition at 2 µg/mL [%]
CCOc1cc(/C=N\NC(=O)CCc2ccccc2)ccc1OC(=O)/C=C/c1ccccc1 [AH-487/37011044]	-17.16		
O=C1C2=C(NC3=C(C(=O)c4ccccc43)C23C(=O)c2cccc4cccc3c24)c2ccccc21 [AE-848/15341192]	13.145		
N#CC1=C(N)Oc2n[nH]c(-c3ccccc3)c2C1c1cccc(OCc2cccc3ccccc23)c1 (stereo not drawn) [AP-964/41446891]	13.75		
O=C(CN1C(=O)C(=NNC(=O)c2ccc(NC(=O)c3ccccc3)cc2)c2ccccc21)Nc1ccccc1 [Compound A2]		832	50.4
OC(CON=C1c2ccccc2-c2ccccc21)CN1CCN(c2ccc(Cl)cc2)CC1 (stereo not drawn) [AS-871/42941985]	-10.47		
Cc1ccc(-c2cc(-c3ccccc3Cl)c3c(N)c(-c4nnc(-c5ccccc5)o4)sc3n2)cc1 [AG-690/40749514]	-4.41		
O=C(COc1ccccc1-c1cnn(-c2ccccc2)c1)N/N=C/c1cc2ccccc2nc1Cl [AN-829/42007480]	2.755		
Cc1ccnc(NC(=O)c2ccc(Cl)c(NC(=O)c3ccc(-c4ccccc4)cc3)c2)c1 [AN-652/43161615]	17.89		
C=CCN(C(=O)c1ccc2nc(-c3ccccc3)c(-c3ccccc3)nc2c1)c1ccccc1 [AG-205/36717014]	19.28		
CCC1CCc2c(sc(NC(=O)c3c(-c4c(Cl)cccc4Cl)noc3C)c2C(N)=O)C1 (stereo not drawn) [AK-968/12265292]	-4.47		
c1ccc(-c2oc3ncn4nc(COc5cccc6ccccc56)nc4c3c2-c2ccccc2)cc1 [AE-848/12917024]	13.565		
O=C1c2cccc3c2C2=S(Sc4ccc(NC5CCCCC5)c1c42)N3C1CCCCC1 (stereo not drawn) [AH-541/12737056]	12.4		
COc1cc(/C=C2/C(=N)N3N=C(c4ccccc4Cl)SC3=NC2=O)ccc1O [Compound M4]		863	70.5
C/C(=N\Nc1nc(-c2ccc(F)cc2)cs1)c1nonc1C [AN-648/40740338]	23.375		
O=C(c1cc(C(=O)N2CCN(c3ccccc3)CC2)cc(C(=O)N2CCN(c3ccccc3)CC2)c1)N1CCN(c2ccccc2)CC1 [Compound A1]		572	80.6
Cc1cccc(N(CC(=O)N/N=C/c2cccc(Br)c2)S(=O)(=O)c2ccccc2)c1C [AH-487/40936079]	0.44		
O=C1c2ccc(-c3nc4ccccc4s3)cc2C(=O)N1c1cccc(-c2nc3ccccc3s2)c1 [AN-979/41713847]	5.385		
Cc1ccc(OS(=O)(=O)c2cccc(C(=O)Nc3ccccc3)c2)c(-n2nc3ccccc3n2)c1 [AG-690/11836103]	-16.78		
CCn1cc(/C=C2\C(=O)NC(=S)N(c3cccc4ccccc34)C2=O)c2ccccc21 [AN-465/14954307]	46.45		
Cc1cc(C)c2oc(-c3ccc(C)c(NC(=O)C(c4ccccc4)c4ccccc4)c3)nc2c1 [AN-465/13859038]	40.815		
c1ccc(-c2oc3ncn4nc(CSc5nc6ccccc6s5)nc4c3c2-c2ccccc2)cc1 [AG-690/12869680]	-1.245		
